Measurements as given in patent US6165982A, “Use of sericin as antioxidants and tyrosinase inhibitors” (Seiren Co., Ltd., priority 1996, dated 2000).

Tested on: rat brain homogenate
Assay: Inhibitory test of lipid peroxide in rat brain homogenate (TBARS, TBA method)
Assay type: biochemical
Conditions: for Inhibitory rate on an increase in lipid peroxide: 37° C., 2 hours, TBARS
Protocol: To 1 g of the rat brain stored under refrigeration was added 9 ml of 0.075M phosphate buffer (pH 7.5) and the mixture was homogenated under ice-cooling (hereinafter referred to as homogenate). To 0.5 ml of the homogenate obtained above was added 3.5 ml each of 0.075M phosphate buffers containing Sericin L and Sericin H (pH 7.5), respectively. Incubation was continued at 37° C. for 2 hours. At the end of this time, the respective final concentrations of sericin were made to 0.02~0.5%. Immediately before the isolation and after the incubation for 2 hours, 0.5 ml each of the samples was recovered and then TBARS (thiobarbituric acid reactive substance), an indicator of lipid peroxide level, was determined according to the TBA (thiobarbituric acid) method. Antioxidizing ability of sericin was calculated from the TBARS amount obtained when no sericin was added and the TBARS amount obtained when sericin was added according to the following equation 1 and expressed in terms of an inhibitory rate on an increase in lipid peroxide by incubation. In all cases of this Test Example and the following Test Examples 2~5, tests were repeated three times and the results were shown with an average value of the numerical values thus obtained. Inhibitory rate (%)=(1-A/B)×100 Equation 1 A: Increased TBARS amount obtained when a lipid peroxide inhibitory agent (an antioxidant) was added B: Increased TBARS amount obtained when no lipid peroxide inhibitory agent (an antioxidant) was added To 0.5 ml of a sample were added 2.5 ml of a 8% trichloroacetic acid solution and 2.0 ml of a 0.67% thiobarbituric acid solution and the resulting mixture was thoroughly mixed and then heated in a boiling water bath for 15 minutes. Thereafter, the mixture was centrifuged at 2000× g for 10 minutes and the supernatant was measured for absorbance at 535 nm to determine a TBARS amount. 1,1,3,3-Tetraethoxypropane was used as a standard. To 0.5 ml of the homogenate obtained above was added 3.5 ml each of 0.075M phosphate buffers (pH 7.5) containing Sericin L, ascorbic acid (vitamin C) and bovine serum albumin, respectively. Incubation was continued at 37° C. for 2 hours. The final concentrations of Sericin L, ascorbic acid and albumin were made to 0.01%~1.0%. After incubation, a TBARS amount was determined according to the TBA method, similarly to Test Example 1 and inhibitory rates on an increase in lipid peroxide were determined, respectively.

## O=C1O[C@H]([C@@H](O)CO)C(O)=C1O [Ascorbic acid, ascorbic acid]
Final concentration 0.01%
  Inhibitory rate on an increase in lipid peroxide: -39%
Final concentration 0.05%
  Inhibitory rate on an increase in lipid peroxide: 39%
Final concentration 0.1%
  Inhibitory rate on an increase in lipid peroxide: 87%
Final concentration 0.5%
  Inhibitory rate on an increase in lipid peroxide: 97%
Final concentration 1.0%
  Inhibitory rate on an increase in lipid peroxide: 96%
Low concentration range of 0.01%
  Effect on oxidation at low concentration (in words): oxidation may be accelerated
